Measurements as given in patent US20260132172A1, “IN VITRO BIOSYNTHESIS OF DIVERSE PYRIDINE-BASED MACROCYCLIC PEPTIDES” (The Brd. of Trustees of the Univ. of Illinois, priority 2022, published 2026).
Where a SMILES comes first, the peptide text is derived from it.

Experiments:
[1] = system: MroD; assay: Competition fluorescence polarization with fluorescein-Δ12MroA1, MroD; assay type: binding, Micromonospora rosaria; settings: competition FP, 80 nM enzyme, 5 nM labeled Δ12MroA1
Procedure: (§1) The initial sample contained 80 nM enzyme, 5 nM labeled Δ12MroA1 peptide, and competitor peptide (concentration is from 20 μM to 100 μM, depending on the experiment). In a black 384-well plate (Corning 3575), 30 μL of initial sample was added to the first well, followed by 13 2-fold dilutions into subsequent wells containing 80 nM MBP-MroB and 5 nM labeled Δ12MroA1. The plate was covered from light and incubated at room temperature for 10 min, and then fluorescence polarization was measured (Biotek Synergy H4 hybrid reader) using the following filter (Ex: Em—485 nm/20 nm: 518 nm/20 nm). The obtained data was converted to anisotropy value and plotted against peptide concentration, and fitted to dose-response function:
(§2) Where: y=anisotropy value, A1=minimum anisotropy, A2=maximum anisotropy, p=Hill's coefficient, x=competitor concentration. The obtained IC50 was used to calculate inhibitor constant Krusing the following equation: 12
(§3) In cases where competitor concentration was not high enough to achieve a plateau, the competition curve was fitted with minimum anisotropy fixed to be the same value as the anisotropy value of the free probe solution. This calculation assumed that the labeled peptide was completely displaced from the enzyme binding pocket at a very high concentration of the competitor. […] The specific minimum anisotropy used in this experiment for both MroB and MroD was 65.

[2] = system: MroB; assay: Competition fluorescence polarization with fluorescein-Δ12MroA1, MroB; assay type: binding, Micromonospora rosaria; settings: for IC50: competition FP, 80 nM enzyme, 5 nM labeled Δ12MroA1
Procedure: as §1, §2, §3

[3] = system: MroB/C; assay: MroB/C dehydration (Dha formation) of MroA precursor peptide variants, MALDI-TOF-MS / LC-MS/MS; assay type: biochemical, Micromonospora rosaria; settings: for dehydration by MroBC (site and extent): MroBC assays followed by LC-MS/MS analysis, result in words
Procedure: (§4) In a 0.65 mL protein low-binding Eppendorf tube placed on ice. 0.75 μL of purified mroA variant template DNA was mixed with 0.75 μL of Solution B and 1 μL of Solution A of PURExpress In vitro Protein Synthesis Kit (E6800L) purchased from NEB (total volume of reaction is 2.5 μL). The translation reactions were performed at 37° C. for 1 h on an aluminum block.
For a full MroBCD substrate scope investigation, a total translation volume for each variant of 7.5 μL was performed. 1.5 μL of 90 mM iodoacetamide (IAA) was added to quench dithiothreitol (DTT) in the translation reaction mixture, a thiol-based nucleophile that can react with electrophilic dehydroalanines generated from MroBC-catalyzed dehydration assays. The translation product was split into two parts with these corresponding volumes: 3 μL and 6 μL. In the 6 μL part. 10.2 μL of the enzyme mix containing enzymes and cofactors was added along with 1.8 μL 90 mM ATP (pH 7.5), which was used to initiate the reaction. The enzyme mix was made by adding these components in the following order: HEPES pH 7.5, MgCl2, glutamate, T. bispora tRNA^Glu (CUC), thermostable inorganic pyrophosphatase (TIPP), TEV (L56V/S135G/S219V) (w/w ratio with a total amount of MBP-tagged protein=1:10), MBP-MroB, MBP-MroC, and T. bispora GluRS. The enzyme mix was incubated 25 min at room temperature before adding to the translation product to facilitate in situ TEV-catalyzed cleavage of MBP from MBP-MroB and MBP-MroC. The enzymatic reaction proceeded for 1 h at room temperature. Overall, the concentration of components in the 18 μL reaction mix is as follows: 50 mM HEPES pH 7.5, 5 mM MgCl2. L-glutamate 1 mM, 3 μM T. bispora tRNA^Glu, 1 μM T. bispora GluRS, 2 μM MBP-MroB, 2 μM MBP-MroC, […], 0.027 U/μL TIPP, and 5 mM IAA. In addition, the 3 μL part was incubated with the same buffer lacking enzymes and tRNA as a translation control.
The reactions were performed similarly as described above, with 10 μM substrate concentration and without IAA. The total volume of each reaction is 100 μL.
Enzymatic assays were desalted using solid-phase extraction prior to LC-ESI-MS/MS analysis. Specifically, except for the thiazol(in)es-containing pyritide (which utilize 8 mg Pierce C18 Spin Column), the samples were applied to Toptip C18 (10-200 μL, Glygen Corp) wetted with 50 μL of 80% acetonitrile (0.1% formic acid) and equilibrate with 150 μL of 0.1% formic acid following the manufacturer instructions. The C18 columns (tips) are then washed with 150 μL of 0.1% formic acid and eluted using 100 μL 80% acetonitrile (0.1% formic acid). The samples were then dried utilizing lyophilization and redissolved in 25% acetonitrile (80 μL for enzymatic assays of in vitro-translated substrates and 200 μL for enzymatic assays of purified substrates). Then 20 μL of each sample was injected into an Agilent AdvanceBio Peptide Plus column (2.1×150 mm, 2.7 μm) equipped with an Agilent 6545B Q-TOF interfaced with an Agilent 1290 Infinity II LC system. Mobile phase solvents were composed of H2O, 0.1% formic acid (Solvent A), and acetonitrile 0.1% formic acid (Solvent B). The column compartment was maintained at 35° C. during all experiments. The column was equilibrated with 5 column volumes of starting mobile phase (95% A and 5% B) between injections. The gradient of all LC runs was as follows: 0-2 min: 95% A 5% B, 2-3 min: 70% A 30% B, 3-18 min: 20% A 80% B, 18-20 min: 5% A 95% B. The samples were run to waste for the first 3 min before applying to the mass spectrometer. Mass range was set from 100 to 1700 m/z (except for 412MroA1 W7G: 100-3000 m/z). MS parameters were as follows: gas, 320° C. at 8 L/min: nebulizer, 35 psig: nozzle voltage, 1000 V: sheath gas, 350° C. at 11 L/min: capillary, 3500 V: fragmentor, 125 V: skimmer, 65 V: MS scan rate (10) spectra/s): MS-MS scan rate (5 spectra/s); and isolation width (MS/MS), 1.3 m z. […]

[4] = system: MroBCD; assay: MroBCD treatment of precursor peptides, overall pyritide biosynthesis; assay type: biochemical, Micromonospora rosaria; settings: result in words
Procedure: as §4
For a full MroBCD substrate scope investigation, a total translation volume for each variant of 7.5 μL was performed. 1.5 μL of 90 mM iodoacetamide (IAA) was added to quench dithiothreitol (DTT) in the translation reaction mixture, a thiol-based nucleophile that can react with electrophilic dehydroalanines generated from MroBC-catalyzed dehydration assays. The translation product was split into two parts with these corresponding volumes: 3 μL and 6 μL. In the 6 μL part. 10.2 μL of the enzyme mix containing enzymes and cofactors was added along with 1.8 μL 90 mM ATP (pH 7.5), which was used to initiate the reaction. […]
After incubation, the enzyme reaction (18 μL) was split into two equal parts. […] The crystallized spots were then analyzed using MALDI-TOF-MS (Bruker Ultraflex). […]

[5] = system: MroD; assay: MroD [4+2] macrocyclization of didehydrated MroA2 variants, MALDI-TOF-MS; assay type: biochemical, Micromonospora rosaria; parameters: key: +++ indicates enzyme activity roughly equal to wild-type MroA2; ++ indicates modestly reduced enzyme activity; + indicates severely reduced enzyme activity; − indicates no detectable enzyme activity (no macrocycles observed); settings: MroA2 multi-site variants; qualitatively estimated from leader peptide vs remaining didehydrated intermediate
Procedure: After incubation, the enzyme reaction (18 μL) was split into two equal parts. One part was treated with MBP-MroD such that the final concentration of MBP-MroD is 3 μM, and the other part was added the same volume but with buffer lacking MBP-MroD (50 mM HEPES, 300 mM NaCl, 2.5% glycerol, 0.5 mM TCEP). The reaction further proceeded for 1.5 h at room temperature. All reaction mixture was then desalted with solid-phase extraction using Ziptip with 0.6 μL C18 resin (EMD Millipore) and crystallized on an MTP384 steel target plate using either saturated sinapic acid or 50 mg/mL Super DHB [dissolved in 60% acetonitrile and 0.1% trifluoroacetic acid (TFA)] as the matrix. The crystallized spots were then analyzed using MALDI-TOF-MS (Bruker Ultraflex). The external standard for MALDI-TOF-MS analysis is ProteoMass Peptide and Protein MALDI-MS Calibration Kit (Sigma).

[6] = biological target: MBP-MroB (Micromonospora rosaria MroB with maltose-binding protein fused to the N-terminus) (Micromonospora rosaria) [MBP: P0AEX9]; assay: fluorescence polarization, MBP-MroB titrated against labeled peptide
[7] = biological target: MBP-MroD (Micromonospora rosaria MroD with maltose-binding protein fused to the N-terminus) (Micromonospora rosaria) [MBP: P0AEX9]; assay: fluorescence polarization, MBP-MroD titrated against labeled peptide

Row | Molecule | IC50 [1] | IC50 [2] | further results
1 | CC[C@H](C)[C@H](NC(=O)[C@H](CC(=O)O)NC(=O)[C@H](CC(C)C)NC(=O)[C@H](CC(=O)O)NC(=O)[C@@H](N)CO)C(=O)N[C@H](C(=O)N[C@@H](CC(=O)O)C(=O)N[C@@H](CC(C)C)C(=O)N[C@@H](CC(=O)O)C(=O)N[C@@H](CC(C)C)C(=O)N[C@@H](C)C(=O)N[C@H](C(=O)N[C@@H](CC(=O)O)C(=O)N[C@@H](CCC(=O)O)C(=O)N[C@@H](CCC(=O)O)C(=O)N[C@@H](CC(C)C)C(=O)N[C@@H](C)C(=O)N[C@@H](C)C(=O)N[C@@H](CC(C)C)C(=O)N[C@@H](CO)C(=O)N[C@H](C(=O)NCC(=O)NCC(=O)N[C@@H](CC(C)C)C(=O)NCC(=O)N[C@@H](CC(N)=O)C(=O)N[C@H](C(=O)N[C@@H](CCC(=O)O)C(=O)N[C@H](C(=O)NCC(=O)N[C@@H](C)C(=O)N[C@@H](CO)C(=O)NCC(=O)N[C@@H](Cc1c[nH]c2ccccc12)C(=O)N[C@@H](CC(C)C)C(=O)NCC(=O)N[C@@H](CO)C(=O)N[C@@H](Cc1c[nH]c2ccccc12)C(=O)N[C@H](C(=O)N[C@H](C(=O)OC)[C@@H](C)CC)C(C)C)C(C)C)[C@@H](C)O)C(C)C)C(C)C)C(C)C [Δ12MroA1-COOMe] (H-SDLDIVDLDLAVDEELAALSVGGLGNTEVGASGWLGSWVI-OMe) | 400 ± 60 nM | 4200 ± 1700 nM | loss in binding affinity to MroB ([2]; relative to Δ12MroA1): ~8 fold
2 | Ac-GASGWLGSWVI-OH [GlyAla-MroA1 core, Ac-GASGWLGSWVI] | 40900 ± 5000 nM | 27200 ± 1900 nM | dehydration by MroBC (site and extent) [3]: only Ser6 is dehydrated
3 | H-SDLDIVDLDLAVDEELAALSVGGLGNTEVGA-OH [Δ12MroA1 Leader] | 16000 ± 4400 nM | 19400 ± 1600 nM | –
4 | H-SDLDIVDLDLAVDEELAALSVGGLGNTEVGASGWLGSGVI-OH [Δ12MroA1-W7G] | 2400 ± 300 nM | 8100 ± 3900 nM | dehydration by MroBC (site and extent) [3]: only Ser1 is predominantly dehydrated
5 | H-SDLDIVDLDLAVDEELAALSVGGLGNTEVGASGWLGSWGI-OH [Δ12MroA1-V8G] | 1700 ± 400 nM | 1100 ± 200 nM | –
6 | H-SDLDIVDLDLAVDEELAALSVGGLGNTEVGASGWLGSWVG-OH [Δ12MroA1-I9G] | 910 ± 90 nM | 2000 ± 600 nM | –
7 | H-SDLDIVDLDLAVDEELAALSVGGLGNTEVGASGWLGSWVI-OH [Δ12MroA1] | 900 ± 20 nM | 680 ± 40 nM | overall pyritide biosynthesis (dehydration and macrocyclization) by MroBCD [4]: full dehydration and macrocyclization
8 | SGFFGRSWLI [MroA2, wild-type precursor peptide of M. rosaria] | – | – | Dha formation ([3]; MroA2 multi-site variants, in vitro translated, MALDI-TOF-MS): 2 Dha; Relative MroD conversion [5]: +++; overall pyritide biosynthesis (dehydration and macrocyclization) by MroBCD [4]: yielding the expected pyritides
9 | fluorescein-Δ12MroA1 (Δ12MroA1 N-terminally labeled with fluorescein) (peptide) | – | – | Kd [6]: 60 nM; Kd [7]: 12 nM
